Experiment [1] deals with CD8+ CD45RA/CD27 T cell subsets. The experiment is described as follows: Proliferation assay (Ki67 staining) with PDL-1/2 blockade and p38 inhibitor. The class given is cell-based, human. The note with it: CD8+ T cells at all four stages of differentiation (N, CM, EM, EMRA); 4 days anti-CD3 and irradiated autologous APCs; 10 μg/ml PDL1/2 blocking antibodies, 500 nM BIRB796; 4 donors. How it is done: It was investigated whether either PD-1 or p38 signalling pathways contributed to the decreased proliferative activity of EMRA CD8^+ T cells. The four CD45RA/CD27 defined T cell subsets were isolated and then stimulated with anti-CD3 antibody and irradiated autologous APCs in the presence of either 10 μg/ml PDL1/2 blocking antibodies, 500 nM BIRB796 or both inhibitors together. Proliferative activity was determined by staining with Ki67 antibody. Representative histograms for the EMRA subset with and without the inhibitors is shown in FIG. 4A, while pooled results from all four subsets from 4 separate donors is shown in FIG. 4B.
PBMCs or sorted CD8^+ T cells were stimulated with 0.5 μg/ml plate coated anti-CD3 (OKT3) for 4 days and proliferation was assessed by staining for the nuclear antigen Ki67 that is expressed by cells at all stages of the cell cycle.
Signalling through PD-1 on purified total CD8^+ and CD27/CD45RA defined CD8^+ subsets was blocked by adding 10 μg/ml each of anti-PD-L1 (29E.2A3.C6) and anti-PD-L2 (24F.10C12.G12), or 10 μg/ml each of IgG2a (Mg2a-53) or IgG2b (MPC-11) isotype control antibodies (Abcam) at the start of the 4 day stimulation period with anti-CD3 (purified OKT3, 0.5 μg/ml) and irradiated APCs. The p38 inhibitor BIRB796 was added to the 4 day cultures at a final concentration of 500 nM and 0.1% DMSO was used as control.

The test system is the same in experiment [2]. The experiment can be described thus: Telomerase activity (TRAP assay) with PDL-1/2 blockade and p38 inhibitor. The class given is cell-based, human. The note with it: 4 days anti-CD3 and irradiated autologous APCs. The source says:
It was next investigated whether p38 or PD-1 signalling were involved in the decreased telomerase activity in EMRA CD8^+ T cells. […] Once again, CD8^+ T cell subsets were stimulated with anti-CD3 and irradiated autologous APCs in the presence of both inhibitors separately or together as in FIG. 4. […] The blockade of PD-1 signalling had no effect on telomerase activity in any of the subsets.
Purified CD8^+ T cell populations (2×10^5 cells) were snap-frozen after stimulation for 4 days with 0.5 μg/ml plate coated anti-CD3 (OKT3) and irradiated APCs. Telomerase activity was determined using the telomeric repeat amplification protocol (TRAP; TRAPeze telomerase detection kit; Chemicon) according to the protocol provided by the manufacturer. The absolute numbers of CD8^+ T cells were enumerated using trypan blue (Sigma). The TRAP assay was performed with samples adjusted to 500 Ki67^+ T cells per reaction to control for the different extents of proliferation in the different subsets after activation.
Signalling through PD-1 on purified total CD8^+ and CD27/CD45RA defined CD8^+ subsets was blocked by adding 10 μg/ml each of anti-PD-L1 (29E.2A3.C6) and anti-PD-L2 (24F.10C12.G12), or 10 μg/ml each of IgG2a (Mg2a-53) or IgG2b (MPC-11) isotype control antibodies (Abcam) at the start of the 4 day stimulation period with anti-CD3 (purified OKT3, 0.5 μg/ml) and irradiated APCs. […]

`Cc1ccc(-n2nc(C(C)(C)C)cc2NC(=O)Nc2ccc(OCCN3CCOCC3)c3ccccc23)cc1` [BIRB796]: the “proliferative activity (Ki67 staining)” value in experiment [1] was “increased proliferative activity”. In addition, the telomerase activity entry in experiment [2] (CD45RA+CD27− (EMRA) CD8+ population, 500 nM BIRB796, 10 μg/ml anti-PDL1/2, p<0.05, 4 donors) was “significant increase”; in experiment [2] (N, CM and EM CD8+ T cells, p38 signalling blocked (500 nM BIRB796), results not significant), “trend towards increased telomerase activity”.

The values are drawn from patent publication US20150017185A1, “METHOD TO IMPROVE THE IMMUNE FUNCTION OF T CELLS” (UCL BUSINESS PLC, priority 2011, published 2015).
